From patent publication US20150313913A1, “POSITIVE ALLOSTERIC MODULATORS OF THE GABA-A RECEPTOR IN THE TREATMENT OF AUTISM” (UNIVERSITY OF WASHINGTON THROUGH ITS CENTER FOR …, priority 2013, published 2015)
“Also recorded” adds a separate entry of the source.

Legend:
[1] = molecular target: T1, GABA-A α1 subtype (Homo sapiens, UniProt P14867+P18507); settings: cited from earlier work
T1 sequence (P14867 28-456): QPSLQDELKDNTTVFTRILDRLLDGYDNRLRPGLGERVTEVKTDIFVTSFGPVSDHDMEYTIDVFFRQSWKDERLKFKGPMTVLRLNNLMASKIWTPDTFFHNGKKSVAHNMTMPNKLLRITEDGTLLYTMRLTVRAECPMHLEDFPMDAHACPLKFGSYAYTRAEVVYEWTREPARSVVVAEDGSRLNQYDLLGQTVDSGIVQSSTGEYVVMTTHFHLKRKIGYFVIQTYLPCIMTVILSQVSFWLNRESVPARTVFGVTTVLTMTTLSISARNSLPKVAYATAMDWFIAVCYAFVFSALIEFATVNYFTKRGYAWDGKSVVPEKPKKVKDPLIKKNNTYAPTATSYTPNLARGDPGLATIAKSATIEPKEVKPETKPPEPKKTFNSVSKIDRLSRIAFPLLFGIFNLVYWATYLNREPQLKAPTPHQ
T1 sequence (P18507 40-467 limits assumed): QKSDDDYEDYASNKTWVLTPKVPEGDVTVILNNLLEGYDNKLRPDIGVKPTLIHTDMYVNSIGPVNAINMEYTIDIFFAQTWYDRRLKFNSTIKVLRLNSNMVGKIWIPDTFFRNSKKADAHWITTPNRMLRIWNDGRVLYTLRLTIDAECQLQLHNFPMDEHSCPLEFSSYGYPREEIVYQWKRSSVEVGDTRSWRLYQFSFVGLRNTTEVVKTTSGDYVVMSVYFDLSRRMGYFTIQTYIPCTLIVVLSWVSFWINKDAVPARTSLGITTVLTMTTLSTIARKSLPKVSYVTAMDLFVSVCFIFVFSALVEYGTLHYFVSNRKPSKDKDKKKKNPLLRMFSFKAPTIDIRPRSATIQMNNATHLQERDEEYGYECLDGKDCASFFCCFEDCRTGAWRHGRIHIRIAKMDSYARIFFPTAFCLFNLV
T1 sequence (P28472 26-473 partner): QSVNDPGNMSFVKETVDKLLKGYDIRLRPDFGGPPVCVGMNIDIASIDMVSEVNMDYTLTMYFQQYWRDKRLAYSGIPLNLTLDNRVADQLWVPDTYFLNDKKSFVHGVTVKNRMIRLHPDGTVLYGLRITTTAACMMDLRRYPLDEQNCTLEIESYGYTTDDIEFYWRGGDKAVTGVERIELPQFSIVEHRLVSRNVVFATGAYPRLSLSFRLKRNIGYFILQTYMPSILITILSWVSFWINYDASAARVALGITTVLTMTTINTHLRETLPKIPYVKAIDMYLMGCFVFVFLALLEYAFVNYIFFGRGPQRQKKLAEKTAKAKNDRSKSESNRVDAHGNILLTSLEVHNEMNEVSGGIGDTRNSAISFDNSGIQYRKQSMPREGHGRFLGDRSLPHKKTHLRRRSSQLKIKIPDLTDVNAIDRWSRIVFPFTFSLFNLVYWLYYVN

[2] = tested on: GABA-A receptor; settings: cited from earlier work
[3] = tested on: GABA-A α4 or α6 subtypes; settings: cited from earlier work
[4] = tested on: C57BL/6J mice; experiment: Barnes circular maze test; format: in vivo; settings: 0.05 mg/kg
Excerpt: (§1) The Barnes circular maze is a planar, round white PLEXIGLAS™ platform (92 cm diameter), 1 m above the floor, with 20 evenly spaced holes (7 cm diameter) located 5 cm from the perimeter. A black escape box (15×7×7 cm) was placed under one hole. Spatial cues with distinct patterns and shapes were placed on the wall of the testing room. A 500 lux light was turned on during the trial. An experimenter remained in the same place with minimal movement throughout the trials. The platform and the escape box were cleaned thoroughly with 70% ethanol and paper towels between each trial to remove olfactory cues. One day before the training trials began, test mice were habituated in the target box for 3 min. The training trials were repeated for 4 consecutive days, and 3 trials were performed each day with 20 min inter-trial intervals. At the beginning of each trial, a test mouse was placed in a cylindrical holding chamber (10 cm diameter) located in the center of the maze. After 10 s of holding time, the mouse was allowed to search for the target hole for 3 min. […] When the mouse entered the escape box, the light was turned off and the mouse remained undisturbed for 1 min. The movement of the mouse was recorded, and the number of errors made and the latency to find the target hole were measured during the training trials by video tracking software. On day 5, the probe trial was performed with each mouse. The escape box was removed, and the test mouse was allowed to find the target hole freely for 90 s. During the probe trial, total distance traveled and the latency to find the target hole were measured. % correct pokes and % time in the target area were also measured.
(§2) The number of errors made and the latency to find the target hole were measured during the 3 min-training trials by video tracking software.
(§3) During the 90 second-probe trial, the latency to find the target hole, % correct pokes, and % time in the target area were measured by the video-tracking software (EthoVision XT 8.5, Noldus Technology).

[5] = tested on: BTBR mice; experiment: Barnes circular maze test; format: in vivo
Excerpt: as §1, §2, §3

[6] = tested on: Scn1a+/− mice; experiment: Contextual fear-conditioning test; format: in vivo; settings: single i.p. 0.0625 mg/kg 30 min before training, listed as CLZ
Excerpt: (§4) The contextual fear-conditioning chamber was a square arena (25×25 cm) with clear PLEXIGLAS™ walls and a metal grid floor connected to a circuit board that delivered shocks to the metal grid (COULBOURN INSTRUMENTS™). An analog camera was attached on top of the chamber. The camera and the circuit board were connected to a personal computer, and its software (FREEZE FRAME™ 2.0, ACTIMETRICS™) controlled the circuit and recorded the data. The chamber was cleaned with 70% ethanol and wiped with paper towels before each session. In the habituation session, a test mouse was placed in the chamber and allowed to explore for 2 min^66-69. Immediately after habituation, the test mouse received a single mild foot shock (2 s, 0.5 mA). After staying in the chamber one more min, the mouse was removed from the chamber. For the 30-min short-term memory test, the mouse was returned to the context 30 min after the end of the training session. […] The movement of mice was also recorded by a USB webcam (LIFECAM™ HD-6000, MICROSOFT™) and PC-based video capture software (WINAVI™ Video Capture, ZJ MEDIA DIGITAL TECHNOLOGY™) for 2 min. The recorded video file was further analyzed by off-line video tracking software (ETHOVISION™ XT 7.0, NOLDUS TECHNOLOGY™). The freezing scores were calculated by dividing the test session into 1 min bouts and averaging together all 2 min for each animal. […]

[7] = tested on: wild-type mice; experiment: Contextual fear-conditioning test; format: in vivo; settings: 0.0625 mg/kg, listed as CLZ
Excerpt: as §4

| SMILES | action at the α1 subtype [1] | Effect at GABA receptor ([2]; Table 2, exemplary SS-PAMs) | affinity for the α4 or α6 subtypes [3] | Effect at GABA-A receptor ([2]; Table 1, exemplary benzodiazepines) | learning performance and spatial memory [4] | spatial learning during training sessions (latency, errors) ([5]; 0.05 mg/kg) | spatial memory in probe trials ([5]; single low dose 30 min prior) | short-term (30 min) and long-term (24 h) fear-associated contextual memory [6] | fear-associated contextual memory [7] |
| --- | --- | --- | --- | --- | --- | --- | --- | --- | --- |
| Cn1ncnc1COc1nn2c(-c3cc(F)ccc3F)nnc2cc1C(C)(C)C [L-838,417] | antagonist | Partial agonist Selective for α2, α3 (and possibly α5) subunits | little affinity | – | – | – | – | – | – |
| O=C1CN=C(c2ccccc2Cl)c2cc([N+](=O)[O-])ccc2N1 [Clonazepam] | – | – | – | Agonist Long- acting | regardless of clonazepam treatment; also recorded: significantly worsened | significantly improved | increased | complete reversal; also recorded: complete rescue | unaffected; also recorded: no significant change |
